Results published in US8871815B2, “Therapeutic compounds” (Signature Therapeutics, Inc., priority 2007, dated 2014).

Assays:
[1] = tested on: male Sprague-Dawley rats; assay: Anesthetic effects in rats, bolus IV, Loss of Righting Reflex (LORR); type: in vivo, rat; conditions: rats
Experimental: (§1) Also measured was minimum dose to achieve LORR and maximum tolerated dose (MTD).
(§2) The ranges of doses studied were 1.9, 2.3, 3.0, 7.0, 13.7, 14.0 and 15.2 mg/kg for Compound 1 and 3.5, 4.0, 7.0 and 14.0 mg/kg for […].

[2] = as above; type: in vivo, rat; conditions: male, Sprague-Dawley, rat, in vivo; bolus IV, rats; read-out: MTD (maximum tolerated dose)
Experimental: as §1, §2

[3] = tested on: mongrel dogs; assay: Anesthetic and hemodynamic effects in chronically instrumented mongrel dogs, total intravenous anesthesia; type: in vivo, dog
Experimental: Assessments included hemodynamic performance parameters such as blood pressure, heart rate, and cardiac output as well as clinical chemistry parameters and EEG analysis.
General anesthesia was induced in the dogs by IV administration of 7 mg/kg […], and the dogs were tracheally intubated and mechanically ventilated. General anesthesia was maintained using 2.2% end-tidal sevoflurane in oxygen. A thoracotomy was performed at the fifth left intercostal space, and heparin-filled catheters were placed in the proximal descending thoracic aorta (P50 pressure transducer Gould, Oxnard, Calif.), and in the right and left atria to provide IV access. An ultrasonic transit-time flow probe (T108, Transonic Systems, Ithaca, N.Y.) was placed around the ascending thoracic aorta. A […] Doppler flow probe (Model HDP-20-3.5, Triton Surgical Technologies, San Diego, Calif.) was placed around the left anterior descending coronary artery. Six MHz sonomicrometer crystals (Hartley, Houston, Tex.) were implanted in the subendocardium. A high fidelity micromanometer (P7, Konigsberg Instruments, Pasadena, Calif.) was inserted into the left ventricle. […]
The dogs were fasted overnight. […] EEG was recorded continuously during the experiment. Arterial blood gas and chemistry measures included pH, pO2, sO2, pCO2, tCO2, carbonate, potassium, sodium, and base excess, and were measured immediately following blood draws using a blood gas and chemistry analyzer (ABL-505, Radiometer, Copenhagen). […] Following stabilization, baseline measurements of EEG, hemodynamics, ECG, and blood gases were recorded. Blood samples were drawn for PK and clinical chemistry, and pressure volume loops were generated and data recorded.
Following induction, the dogs were tracheally intubated, and mechanically ventilated using 50% oxygen in nitrogen throughout the subsequent drug infusion and recovery periods. […] MAP was monitored continuously, and dosing was discontinued immediately if MAP decreased below 50 mmHg at any time or if the heart rate increased over 200 beats per minute. […]

SMILES: CC[C@@H](C)c1cccc([C@H](C)CC)c1O [Compound 1]
- deaths ([1]; 15.2 mg/kg bolus IV): Two rats died
- HD50 (dose required to cause 50% of the rats to lose righting reflex) ([1]; bolus IV): 2.1 mg/kg
- HD7min (dose required to produce 7 minutes of anesthesia) ([1]; bolus IV): 2.3 mg/kg
- TI (therapeutic index, ratio of MTD to HD7 min) ([1]; bolus IV): 6.1
- MTD [2]: 14 mg/kg
- MAP and heart rate results compared to propofol [3]: no statistically significant differences
- Cardiac output versus baseline ([3]; IV bolus then stepwise IV infusions 0.25-2.0 mg/kg/min): no statistically significant reduction
